{"source": "ChEMBL document CHEMBL1201862", "about": "“PubChem BioAssay data set” (2004)", "key": {"Cytochrome P450 2D6": {"molecular_target": "Cytochrome P450 2D6 (Homo sapiens, UniProt P10635)", "sequence (P10635 whole entry)": "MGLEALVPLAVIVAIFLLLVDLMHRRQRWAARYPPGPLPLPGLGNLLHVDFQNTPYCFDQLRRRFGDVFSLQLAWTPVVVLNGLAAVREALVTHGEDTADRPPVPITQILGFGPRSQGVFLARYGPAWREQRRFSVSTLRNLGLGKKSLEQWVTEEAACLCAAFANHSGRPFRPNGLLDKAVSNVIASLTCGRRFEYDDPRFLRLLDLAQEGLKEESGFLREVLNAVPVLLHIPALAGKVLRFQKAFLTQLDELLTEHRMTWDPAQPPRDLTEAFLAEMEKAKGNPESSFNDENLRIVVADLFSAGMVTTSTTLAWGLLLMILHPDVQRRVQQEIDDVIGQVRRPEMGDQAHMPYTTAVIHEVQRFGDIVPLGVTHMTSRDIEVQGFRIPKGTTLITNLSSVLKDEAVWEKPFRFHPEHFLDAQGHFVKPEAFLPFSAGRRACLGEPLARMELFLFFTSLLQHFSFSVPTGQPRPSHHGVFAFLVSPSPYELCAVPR"}, "[1]": {"test": "alpha-synuclein stem-loop luciferase translation blockers – H4 neuroglioma cells, luminescence, confirmation (AID 1988)", "type": "functional, cell-based"}, "[2]": {"test": "loss of viability in HepG2 cells – cell-based, CellTiter-Glo, cherry-picked, cytotoxicity control for Shn3 inhibitor project, dose response (AID 624134)", "type": "functional"}, "[3]": {"molecular_target": "T1, Ubiquitin-conjugating enzyme E2 N (Homo sapiens, UniProt P61088)", "T1 sequence (P61088 whole entry)": "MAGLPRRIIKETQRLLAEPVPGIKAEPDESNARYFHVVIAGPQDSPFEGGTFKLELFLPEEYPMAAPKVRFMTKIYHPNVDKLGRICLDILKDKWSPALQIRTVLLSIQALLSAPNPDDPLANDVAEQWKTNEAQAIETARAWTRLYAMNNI", "type": "functional"}, "[4]": {"test": "non-specific 3'UTR reporter inhibition in Clone20-Shn3RL – cell-based, Renilla luciferase, cherry-picked, counter-screen for Shn3 inhibitor project, dose response (AID 624133)", "type": "functional"}, "[5]": {"test": "reduction of Shn3 3'UTR-driven luciferase in osteoblasts – cell-based, Clone20 osteoblasts, firefly luciferase, cherry-picked, dose response (AID 624132)", "type": "functional"}, "[6]": {"test": "HPDE-C7 pancreatic duct cell viability loss – fluorescence, HTS (AID 430)", "type": "functional, cell-based", "conditions": "Homo sapiens"}, "Cytochrome P450 2C19": {"molecular_target": "Cytochrome P450 2C19 (Homo sapiens, UniProt P33261)", "sequence (P33261 whole entry)": "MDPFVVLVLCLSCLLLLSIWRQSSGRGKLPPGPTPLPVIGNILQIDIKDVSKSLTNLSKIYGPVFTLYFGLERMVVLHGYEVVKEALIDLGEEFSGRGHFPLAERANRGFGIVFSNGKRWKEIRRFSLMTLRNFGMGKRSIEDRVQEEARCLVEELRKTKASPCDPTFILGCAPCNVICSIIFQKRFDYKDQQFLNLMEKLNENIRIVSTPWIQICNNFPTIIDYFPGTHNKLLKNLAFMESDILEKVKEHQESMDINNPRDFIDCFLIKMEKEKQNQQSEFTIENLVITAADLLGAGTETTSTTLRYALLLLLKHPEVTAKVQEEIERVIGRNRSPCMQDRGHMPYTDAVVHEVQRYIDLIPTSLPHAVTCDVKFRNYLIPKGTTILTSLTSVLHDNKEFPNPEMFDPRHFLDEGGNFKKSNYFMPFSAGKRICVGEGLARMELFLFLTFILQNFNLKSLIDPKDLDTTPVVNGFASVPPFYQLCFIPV", "test": "Cytochrome panel assay with activity outcomes. Panel member name: p450-cyp2c19 Compounds with AC50 equal or less than 10 uM are considered active", "type": "functional", "conditions": "read-out: AC50"}, "Cytochrome P450 2C9": {"molecular_target": "Cytochrome P450 2C9 (Homo sapiens, UniProt P11712)", "sequence (P11712 whole entry)": "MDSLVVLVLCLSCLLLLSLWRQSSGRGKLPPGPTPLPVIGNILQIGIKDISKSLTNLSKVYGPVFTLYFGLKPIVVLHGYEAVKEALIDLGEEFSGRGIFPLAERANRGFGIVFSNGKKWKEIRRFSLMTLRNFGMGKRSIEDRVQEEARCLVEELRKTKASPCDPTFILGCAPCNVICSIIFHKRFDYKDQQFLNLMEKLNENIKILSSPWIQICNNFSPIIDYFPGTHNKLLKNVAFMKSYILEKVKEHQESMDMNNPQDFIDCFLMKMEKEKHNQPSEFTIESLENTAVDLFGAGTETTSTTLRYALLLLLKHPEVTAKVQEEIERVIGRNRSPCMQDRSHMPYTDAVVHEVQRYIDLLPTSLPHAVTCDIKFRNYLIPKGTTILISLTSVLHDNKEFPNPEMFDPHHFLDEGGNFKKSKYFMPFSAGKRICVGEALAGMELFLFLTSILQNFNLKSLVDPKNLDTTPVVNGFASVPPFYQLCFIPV"}, "[7]": {"test": "viability of HCT116 lacking mutant beta-catenin – cell-based, human colon tumor, dose response (AID 1045);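 further: cells exposed to compound for 60 hours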", "type": "functional"}, "[8]": {"test": "luciferase reporter signal suppression in cells – H4 neuroglioma cells, luminescence, dose response (AID 1990)", "type": "functional, cell-based"}, "[9]": {"test": "Luminescence Cell-Based Dose Response HTS to Identify Inhibitors of 5'UTR Stem-Loop Driven Prion Protein mRNA Translation in H4 Neuroglioblastoma Cells. [Related pubchem assays: 1827 (Project Summary), 1813 (Primary HTS)]", "type": "functional"}, "[10]": {"test": "viability of PTEN-deleted HCT116 cells – cell-based, HCT116 PTEN knockout, dose response (AID 1047);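 further: cells exposed to compound for 60 hours before readout; potency for loss of cell viability measured by luminescence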", "type": "functional"}, "Cytochrome P450 3A4": {"molecular_target": "Cytochrome P450 3A4 (Homo sapiens, UniProt P08684)", "sequence (P08684 whole entry)": "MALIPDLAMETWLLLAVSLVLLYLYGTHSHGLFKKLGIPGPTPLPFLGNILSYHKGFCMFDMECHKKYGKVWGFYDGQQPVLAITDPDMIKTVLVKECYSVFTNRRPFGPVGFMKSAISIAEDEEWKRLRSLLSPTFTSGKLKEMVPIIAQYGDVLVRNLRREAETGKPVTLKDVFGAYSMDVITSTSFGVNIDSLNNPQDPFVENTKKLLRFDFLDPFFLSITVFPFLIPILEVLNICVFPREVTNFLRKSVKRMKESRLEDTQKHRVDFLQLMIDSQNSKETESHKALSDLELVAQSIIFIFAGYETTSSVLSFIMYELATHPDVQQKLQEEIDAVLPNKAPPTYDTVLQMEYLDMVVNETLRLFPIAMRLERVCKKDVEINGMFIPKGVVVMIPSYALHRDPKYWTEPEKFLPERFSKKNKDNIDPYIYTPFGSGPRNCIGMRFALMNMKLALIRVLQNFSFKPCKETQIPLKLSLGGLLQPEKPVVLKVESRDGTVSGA"}, "[11]": {"test": "viability loss of HPDE-C7K cells – cell-based, fluorescence, HTS, primary screen (AID 431)", "type": "functional", "conditions": "Homo sapiens"}, "[12]": {"test": "M. tuberculosis H37Rv growth inhibitors, H37Rv strain (AID 1626)", "type": "functional"}, "Large T antigen": {"molecular_target": "Large T antigen (Simian virus 40, UniProt P03070)", "sequence (P03070 whole entry)": "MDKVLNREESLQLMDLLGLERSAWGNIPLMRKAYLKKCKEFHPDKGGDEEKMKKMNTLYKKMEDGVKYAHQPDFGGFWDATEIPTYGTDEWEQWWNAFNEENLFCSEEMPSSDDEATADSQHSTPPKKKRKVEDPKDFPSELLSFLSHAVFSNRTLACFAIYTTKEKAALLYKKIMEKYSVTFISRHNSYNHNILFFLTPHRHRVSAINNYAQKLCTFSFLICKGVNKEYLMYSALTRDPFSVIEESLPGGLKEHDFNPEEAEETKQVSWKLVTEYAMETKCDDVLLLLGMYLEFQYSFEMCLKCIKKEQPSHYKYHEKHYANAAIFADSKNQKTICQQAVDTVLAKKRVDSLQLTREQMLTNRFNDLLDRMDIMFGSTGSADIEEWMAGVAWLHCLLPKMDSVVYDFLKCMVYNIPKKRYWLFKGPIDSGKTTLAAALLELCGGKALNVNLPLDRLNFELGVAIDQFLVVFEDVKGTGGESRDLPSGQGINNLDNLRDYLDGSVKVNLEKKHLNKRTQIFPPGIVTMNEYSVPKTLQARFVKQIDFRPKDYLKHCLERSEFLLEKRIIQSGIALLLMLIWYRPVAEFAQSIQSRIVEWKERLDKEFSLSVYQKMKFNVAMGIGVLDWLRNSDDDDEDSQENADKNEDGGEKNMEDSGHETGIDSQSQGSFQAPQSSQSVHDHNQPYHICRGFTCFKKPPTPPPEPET", "type": "functional, Betapolyomavirus macacae"}, "Procathepsin L [13]": {"molecular_target": "T2, Procathepsin L (Homo sapiens, UniProt P07711)", "T2 sequence (P07711 whole entry)": "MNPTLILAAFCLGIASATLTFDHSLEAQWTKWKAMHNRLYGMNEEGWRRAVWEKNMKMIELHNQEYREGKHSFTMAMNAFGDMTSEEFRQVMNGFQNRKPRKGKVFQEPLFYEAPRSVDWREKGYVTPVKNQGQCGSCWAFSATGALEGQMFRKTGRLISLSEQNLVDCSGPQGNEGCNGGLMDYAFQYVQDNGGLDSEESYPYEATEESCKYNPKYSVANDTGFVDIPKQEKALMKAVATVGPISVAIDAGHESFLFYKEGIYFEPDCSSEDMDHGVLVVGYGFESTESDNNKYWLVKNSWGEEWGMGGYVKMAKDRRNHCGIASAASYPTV", "test": "CTSL1 protease inhibition – biochemical, QFRET, 1536-well, counter-screen for M1/M17 aminopeptidase inhibitor project, dose response (AID 2214)"}, "Aspartyl aminopeptidase [14]": {"molecular_target": "T3, Aspartyl aminopeptidase (Plasmodium falciparum 3D7, UniProt Q8I2J3)", "T3 sequence (Q8I2J3 whole entry)": "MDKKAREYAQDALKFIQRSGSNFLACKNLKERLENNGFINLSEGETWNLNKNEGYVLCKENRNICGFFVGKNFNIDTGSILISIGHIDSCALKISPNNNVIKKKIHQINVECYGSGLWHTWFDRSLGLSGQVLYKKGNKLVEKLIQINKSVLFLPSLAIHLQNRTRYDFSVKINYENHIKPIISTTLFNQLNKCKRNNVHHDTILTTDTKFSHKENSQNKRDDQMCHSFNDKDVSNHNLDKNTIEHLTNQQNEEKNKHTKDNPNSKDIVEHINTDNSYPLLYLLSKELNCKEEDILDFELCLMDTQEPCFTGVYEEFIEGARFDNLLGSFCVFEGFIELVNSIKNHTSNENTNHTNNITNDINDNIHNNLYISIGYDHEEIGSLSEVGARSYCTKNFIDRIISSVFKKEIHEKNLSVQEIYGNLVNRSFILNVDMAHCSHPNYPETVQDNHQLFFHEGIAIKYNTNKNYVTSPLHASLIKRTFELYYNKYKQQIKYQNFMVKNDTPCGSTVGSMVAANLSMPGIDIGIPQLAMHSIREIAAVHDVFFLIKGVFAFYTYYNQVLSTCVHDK", "test": "Counterscreen for inhibitors of M1 and M17 aminopeptidases: QFRET-based biochemical high throughput dose response assay for inhibitors of the Plasmodium falciparum M18 Aspartyl Aminopeptidase (PFM18AAP). [Related PubChem assays: 1619 (Screening assay (M17LAP inhibitors).), 1445 (Screening assay (M1AAP inhibitors).)]"}, "Leucine aminopeptidase": {"molecular_target": "T4, Leucine aminopeptidase (Plasmodium falciparum 3D7, UniProt Q8IL11)", "T4 sequence (Q8IL11 whole entry)": "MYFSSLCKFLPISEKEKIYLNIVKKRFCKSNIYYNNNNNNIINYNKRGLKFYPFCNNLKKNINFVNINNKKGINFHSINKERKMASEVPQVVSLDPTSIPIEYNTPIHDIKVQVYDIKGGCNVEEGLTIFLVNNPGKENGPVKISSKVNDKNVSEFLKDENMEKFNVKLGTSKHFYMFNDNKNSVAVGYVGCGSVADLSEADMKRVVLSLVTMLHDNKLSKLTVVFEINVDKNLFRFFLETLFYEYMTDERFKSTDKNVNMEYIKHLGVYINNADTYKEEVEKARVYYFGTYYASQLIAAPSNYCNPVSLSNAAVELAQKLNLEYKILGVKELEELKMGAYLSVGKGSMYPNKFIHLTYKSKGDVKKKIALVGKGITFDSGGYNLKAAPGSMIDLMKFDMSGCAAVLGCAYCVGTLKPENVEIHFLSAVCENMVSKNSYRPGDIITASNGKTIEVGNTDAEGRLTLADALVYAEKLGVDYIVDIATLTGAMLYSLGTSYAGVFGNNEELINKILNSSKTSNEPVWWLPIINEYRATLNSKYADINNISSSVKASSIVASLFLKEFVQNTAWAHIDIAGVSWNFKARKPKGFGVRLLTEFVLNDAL", "test": "P. falciparum M17LAP inhibitors, primary screen, biochemical, fluorogenic H-Leu-NHMec substrate, 1536-well (AID 1619)", "type": "functional"}, "[15]": {"molecular_target": "Eukaryotic translation initiation factor 4E (Mus musculus, UniProt P63073)", "sequence (P63073 whole entry)": "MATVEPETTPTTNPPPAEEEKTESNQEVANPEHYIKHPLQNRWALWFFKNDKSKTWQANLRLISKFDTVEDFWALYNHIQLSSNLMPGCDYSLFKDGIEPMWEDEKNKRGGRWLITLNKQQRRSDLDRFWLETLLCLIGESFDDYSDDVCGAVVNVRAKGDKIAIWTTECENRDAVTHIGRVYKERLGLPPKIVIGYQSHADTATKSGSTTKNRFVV", "test": "blockers of eIF4G binding by eIF4E – biochemical, TR-FRET, dose response (AID 855);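 further: potency for disrupting eIF4E binding to eIF4GI seen as loss of FRET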", "type": "functional"}, "Procathepsin L [16]": {"molecular_target": "T2, Procathepsin L"}, "Aspartyl aminopeptidase [17]": {"molecular_target": "T3, Aspartyl aminopeptidase"}, "Estrogen receptor": {"molecular_target": "T5, Estrogen receptor (Homo sapiens, UniProt P03372)", "T5 sequence (P03372 whole entry)": "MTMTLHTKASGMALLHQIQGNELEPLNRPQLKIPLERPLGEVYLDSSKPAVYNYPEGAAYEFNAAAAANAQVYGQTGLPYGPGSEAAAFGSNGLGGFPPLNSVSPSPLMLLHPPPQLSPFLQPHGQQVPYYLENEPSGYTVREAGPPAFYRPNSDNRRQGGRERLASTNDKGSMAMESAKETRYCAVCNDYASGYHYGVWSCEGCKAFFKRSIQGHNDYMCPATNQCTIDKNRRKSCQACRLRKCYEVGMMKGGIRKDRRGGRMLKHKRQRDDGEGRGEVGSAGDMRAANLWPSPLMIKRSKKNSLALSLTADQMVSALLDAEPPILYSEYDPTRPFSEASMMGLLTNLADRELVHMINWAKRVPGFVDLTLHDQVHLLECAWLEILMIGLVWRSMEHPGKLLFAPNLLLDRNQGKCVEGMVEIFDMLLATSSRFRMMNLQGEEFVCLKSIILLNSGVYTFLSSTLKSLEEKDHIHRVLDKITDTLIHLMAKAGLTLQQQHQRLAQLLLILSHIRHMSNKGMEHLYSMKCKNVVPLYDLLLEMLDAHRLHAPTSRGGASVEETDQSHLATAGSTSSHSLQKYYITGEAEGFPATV"}, "[18]": {"test": "HIV-1 AD8 envelope cell-cell fusion blockers – cherry-pick, dose response (AID 652062);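 further: luciferase signal from cell-cell fusion driven by HIV-1 clade B AD8 Env; potency is for inhibitors of fusion seen as a drop in luminescence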", "type": "functional, cell-based"}, "[19]": {"test": "blockers of HIV-1 envelope-mediated cell-cell fusion – cherry-pick, dose response (AID 652057)", "type": "functional, cell-based"}, "[20]": {"test": "blockers of HIV-1 ZM109 envelope-driven cell-cell fusion – HeLa effector, CEM target cells, luciferase, cherry-pick, dose response (AID 652058)", "type": "functional, cell-based"}}, "note": "The source made the active and inactive calls."}
{"smiles": "COc1ccc(CCN2CCC(Nc3nc4ccccc4n3Cc3ccc(F)cc3)CC2)cc1", "note": "[ASTEMIZOLE]", "values": [{"measurement": "AC50", "setting": "Cytochrome P450 2D6", "result": "7.94 µM (active)"}, {"measurement": "EC50", "setting": "[1]", "result": "7.94 µM (active)"}, {"measurement": "AC50", "setting": "[2]", "result": "12.6 µM (active)"}, {"measurement": "IC50", "setting": "[3]", "result": "> 20 µM (inactive)"}, {"measurement": "AC50", "setting": "[4]", "result": "19.7 µM (active)"}, {"measurement": "AC50", "setting": "[5]", "result": "3.03 µM (active)"}, {"measurement": "EC50", "setting": "[6]", "result": "12.4 µM (active)"}, {"measurement": "AC50", "setting": "Cytochrome P450 2C19", "result": "7.94 µM (inconclusive)"}, {"measurement": "AC50", "setting": "Cytochrome P450 2C9", "result": "inactive"}, {"measurement": "EC50", "setting": "[7]", "result": "3.78 µM (active)"}, {"measurement": "EC50", "setting": "[8]", "result": "> 60 µM (not active)"}, {"measurement": "EC50", "setting": "[9]", "result": "9.34 µM (active)"}, {"measurement": "EC50", "setting": "[10]", "result": "5.87 µM (active)"}, {"measurement": "AC50", "setting": "Cytochrome P450 3A4", "result": "inactive"}, {"measurement": "EC50", "setting": "[11]", "result": "13.6 µM (active)"}]}
{"smiles": "CCc1ccc(C(=O)CSC2=C(C#N)C(c3ccco3)C(C(C)=O)=C(C)N2)cc1", "note": "(stereo not given)", "values": [{"measurement": "EC50", "setting": "[6]", "result": "14.4 µM (active)"}, {"measurement": "EC50", "setting": "[11]", "result": "15.7 µM (active)"}]}
{"smiles": "COc1ccc(/N=C/c2c[nH]nc2O)cc1", "values": [{"measurement": "IC50", "setting": "[12]", "result": "> 100 µM (active)"}, {"measurement": "IC50", "setting": "Large T antigen", "result": "17.9 µM (active)"}]}
{"smiles": "CCc1cc2cc(OC)ccc2nc1SCC(=O)Nc1cc(OC)c(OC)cc1C(=O)O", "values": [{"measurement": "IC50", "setting": "Procathepsin L [13]", "result": "> 59.6 µM (not active)"}, {"measurement": "IC50", "setting": "Aspartyl aminopeptidase [14]", "result": "> 73.5 µM (not active)"}, {"measurement": "IC50", "setting": "Leucine aminopeptidase", "result": "< 1 µM (active)"}]}
{"smiles": "CCOC(=O)c1cnn(C(=O)c2ccccc2)c1N", "values": [{"measurement": "IC50", "setting": "[12]", "result": "> 100 µM (active)"}, {"measurement": "IC50", "setting": "[15]", "result": "> 64 µM (inactive)"}]}
{"smiles": "CC1CCc2sc(NC(=O)C3CC(Cl)=CCC3C(=O)O)c(C#N)c2C1", "note": "(stereo not given)", "values": [{"measurement": "IC50", "setting": "Procathepsin L [13]", "result": "> 59.6 µM (not active)"}, {"measurement": "IC50", "setting": "Aspartyl aminopeptidase [14]", "result": "> 73.5 µM (not active)"}, {"measurement": "IC50", "setting": "Leucine aminopeptidase", "result": "< 1 µM (active)"}]}
{"smiles": "O=C(CSc1nnc(-c2ccccc2)o1)Nn1cnnc1", "values": [{"measurement": "IC50", "setting": "Procathepsin L [16]", "result": "> 59.6 µM (not active)"}, {"measurement": "IC50", "setting": "Aspartyl aminopeptidase [17]", "result": "2.09 µM (active)"}]}
{"smiles": "Cc1cc(C(=O)COC(=O)c2ccc[nH]c2=O)c(C)n1-c1ccc(Br)cc1", "values": [{"measurement": "IC50", "setting": "Procathepsin L [13]", "result": "> 59.6 µM (not active)"}, {"measurement": "IC50", "setting": "Aspartyl aminopeptidase [14]", "result": "> 73.5 µM (not active)"}, {"measurement": "IC50", "setting": "Leucine aminopeptidase", "result": "2.74 µM (active)"}]}
{"smiles": "Cc1ccccc1Nc1nnc(SCC(=O)NC(=O)NCc2ccco2)s1", "values": [{"measurement": "IC50", "setting": "Estrogen receptor", "result": "17.3 µM (active)"}, {"measurement": "IC50", "setting": "Leucine aminopeptidase", "result": "25.1 µM (active)"}]}
{"smiles": "O=C(Nc1ccccc1Cl)Nn1cnnc1", "values": [{"measurement": "IC50", "setting": "Procathepsin L [16]", "result": "> 59.6 µM (not active)"}, {"measurement": "IC50", "setting": "Aspartyl aminopeptidase [17]", "result": "1.47 µM (active)"}]}
{"smiles": "O=S(=O)(NCCc1csc(-c2cccnc2)n1)c1ccc(Cl)s1", "values": [{"measurement": "AC50", "setting": "[18]", "result": "12 µM (active)"}, {"measurement": "AC50", "setting": "[19]", "result": "42 µM (active)"}, {"measurement": "AC50", "setting": "[20]", "result": "7.17 µM (active)"}, {"measurement": "IC50", "setting": "Estrogen receptor", "result": "19.2 µM (active)"}]}
